# Where two headings read alike, the source gives them in different places.
# Key:
# WI38 cells = test: Cell proliferation assay, normal fibroblast cell line WI38; assay type: cell-based, rat; details: WI-38, 48 h, two days, three different experiments
# C6 glioma cells [1] = test: Flow cytometry/cell cycle analysis; assay type: cell-based; details: 25 μM
# Method: Flow cytometry/cell cycle analysis. For flow cytometry, cells were grown in low serum (0.5%) for two days to synchronize cells in G0/G1, after which they were placed in high serum (10%) for two days. The cells were then labeled with propidium iodide and fixed in 4% paraformaldehyde. Cells were examined using a MoFlo Facs sorter for DNA content.
# U373 = test: MTT assay, human cancer cell line U373 (brain); assay type: cell-based; details: U373, 25 μM, 48 hour MTT assay; for inhibition at 25 µM: Homo sapiens, U373 MG, read-out: Percent inhibition of human cancer cell line growth
# Calu6 = test: MTT assay, human cancer cell line Calu6 (lung); assay type: cell-based; details: Calu6, 25 μM, 48 hour MTT assay; for inhibition at 25 µM: Homo sapiens, Calu-6, read-out: Percent inhibition of human cancer cell line growth
# U87 = test: MTT assay, human cancer cell line U87 (brain); assay type: cell-based; details: U87, 25 μM, 48 hour MTT assay; for inhibition at 25 µM: Homo sapiens, U-87 MG, read-out: Percent inhibition of human cancer cell line growth
# [2] = test system: human glioma cell line U87; test: In vivo subcutaneous U87 tumor model in nude mice; design: species or system male nu/nu BALBc mice
# Method: In vivo subcutaneous model. 10^6 U87 cells were injected into the right […] of male nu/nu BALBc mice (Charles River). Two days after inoculation, the mice received either 0.1 mg/kg ajulemic acid in 0.05 ml of safflower oil, or 0.05 ml safflower oil by oral administration. Thereafter, identical dosings were performed on each Monday, Wednesday, and Friday. When visible tumors appeared, the size of the tumors were estimated by averaging the values of two roughly perpendicular diameters measurements. Visible tumors were measured on the days of drug administration.
# U118 = test: MTT assay, human cancer cell line U118 (brain); assay type: cell-based; details: U118, 25 μM, 48 hour MTT assay; for inhibition at 25 µM: Homo sapiens, read-out: Percent inhibition of human cancer cell line growth
# A172 = test: MTT assay, human cancer cell line A172 (brain); assay type: cell-based; details: A172, 25 μM, 48 hour MTT assay; for inhibition at 25 µM: Homo sapiens, A 172, read-out: Percent inhibition of human cancer cell line growth
# C6 glioma cells [3] = test: Electron microscopy and trypan blue exclusion of treated cells; assay type: cell-based
# Protein kinase C (PKC) = Protein kinase C (PKC) assay in C6 cells; assay type: cell-based; details: 25 μM
# Method: Protein kinase C (PKC) assay. Cells were transferred into MEM media (0.5% serum) and cultured overnight. The next day, cells were treated with either DMSO or 25 μM ajulemic acid for the specified incubation time, after which the plates were trypsinized. 5×10^6 trypsinized cells were assayed for PKC activity using a kit (Calbiochem, cat. no. 53984).
# Du145 = test: MTT assay, human cancer cell line Du145 (prostate); assay type: cell-based; details: Du145, 25 μM, 48 hour MTT assay; for inhibition at 25 µM: Homo sapiens, DU-145, read-out: Percent inhibition of human cancer cell line growth
# W138 cells = test: Refractile bodies by phase microscopy, W138 cells; assay type: cell-based; details: same length of time and dosage
# HT1376 = test: MTT assay, human cancer cell line HT1376 (bladder); assay type: cell-based; details: HT1376, 25 μM, 48 hour MTT assay; for inhibition at 25 µM: Homo sapiens, HT-1376, read-out: Percent inhibition of human cancer cell line growth
# PC3 = test: MTT assay, human cancer cell line PC3 (prostate); assay type: cell-based; details: PC3, 25 μM, 48 hour MTT assay; for inhibition at 25 µM: Homo sapiens, PC-3, read-out: Percent inhibition of human cancer cell line growth
# C6 glioma cells [4] = test: Co-incubation of C6 glioma cells with a specific CB1 antagonist; assay type: cell-based; details: 3.2 μM of a specific CB1 antagonist
# C6 cells [5] = test: Cell size and refractile bodies by phase microscopy, C6 cells; assay type: cell-based; details: for cells with one or more refractile bodies / mean number of refractile bodies per cell: C6 cells, after 48 hours
# C6 glioma cells [6] = test: MTT cell proliferation assay, C6 glioma cells; assay type: cell-based; details: for inhibition at 25 µM: 48 h, two days, three different experiments; for IC50: MTT assay, FIG. 1, read-out: IC50, inhibition of C6 glioma cells
# J82 = test: MTT assay, human cancer cell line J82 (bladder); assay type: cell-based; details: J82, 25 μM, 48 hour MTT assay; for inhibition at 25 µM: Homo sapiens, read-out: Percent inhibition of human cancer cell line growth
# [7] = test system: human cell lines derived from a variety of cancer types (brain, breast, bladder, lung, and prostate); test: MTT assay, all ten human cancer cell lines together; assay type: cell-based; details: for inhibition at 25 µM: read-out: inhibition levels (mean±SD)
# HS578T = test: MTT assay, human cancer cell line HS578T (breast); assay type: cell-based; details: 48 hour MTT assay; for inhibition at 25 µM: Homo sapiens, Hs-578T, read-out: Percent inhibition of human cancer cell line growth
# C6 cells [8] = test: Lipid incorporation assay (14C-arachidonic acid); assay type: cell-based; details: 25 μM, 48 hours
# [9] = Stereospecificity of inhibition of cell proliferation (D-isomer vs L-isomer); assay type: cell-based; details: 25 μM dose, preparation 95% enriched in D-isomer, p<0.001, FIG. 2
# [10] = two days in 10% serum after synchronization
# [11] = two days in 10% serum after synchronization, listed as AJA
# [12] = 48 hours, mean over the ten human lines
compound,measurement,setting,value
"CCCCCCC(C)(C)c1cc(O)c2c(c1)OC(C)(C)[C@@H]1CC=C(C(=O)O)C[C@@H]21 [ajulemic acid, 1′,1′-dimethylheptyl-Δ^8-THC-11-oic acid]",inhibition at 25 µM,WI38 cells,44%
same,rate of apoptosis (sub-G0 cells),C6 glioma cells [1]; two days,not increased
same,G0/G1 (mean % ± SD),C6 glioma cells [1]; [10],39.1 ± 1.3 %
same,G2/M (mean % ± SD),C6 glioma cells [1]; [10],32.3%
same,S (mean % ± SD),C6 glioma cells [1]; [10],13.0%
same,G2/M (mean % ± SD),C6 glioma cells [1]; [11],32.3 ± 3.0 %
same,S (mean % ± SD),C6 glioma cells [1]; [11],13.0 ± 2.3 %
same,inhibition at 25 µM,U373,34 ± 1%
same,inhibition at 25 µM,Calu6,69 ± 3%
same,inhibition at 25 µM,U87,54 ± 2%
same,appearance and size of tumors (in words),"[2]; 0.1 mg/kg thrice weekly, FIG. 4",delay in both the appearance and size of tumors
same,mean tumor diameter,"[2]; day 25 post-inoculation, 0.1 mg/kg oral thrice weekly, n=5, p=0.015",3.8±8.5 mm
same,inhibition at 25 µM,U118,60 ± 2%
same,inhibition at 25 µM,A172,76 ± 1%
same,recovery upon drug removal,C6 glioma cells [3],recover quickly upon drug removal
same,state of treated cells under electron microscopy,C6 glioma cells [3],neither apoptotic nor necrotic
same,viability rate by trypan blue exclusion,C6 glioma cells [3]; treated cells,> 95%
same,onset of PKC activity increase,Protein kinase C (PKC),increased within five minutes
same,PKC activity versus control,Protein kinase C (PKC); for one hour,approximately two-fold above that of control
same,inhibition at 25 µM,Du145,74 ± 2%
same,refractile bodies noted (in words),W138 cells,no refractile bodies
same,inhibition at 25 µM,HT1376,60 ± 2%
same,inhibition at 25 µM,PC3,69 ± 2%
same,change of effect on co-incubation with CB1 antagonist (in words),C6 glioma cells [4],slight potentiation
same,cells with one or more refractile bodies,C6 cells [5],83%
same,mean number of refractile bodies per cell,C6 cells [5],1.78±1.6 per cell
same,cell size,C6 cells [5]; after 48 hours of exposure,marked increase in cell size
same,inhibition at 25 µM,C6 glioma cells [6],65%
same,IC50,C6 glioma cells [6]; C6 glioma,55 µM
same,inhibition at 25 µM,J82,57 ± 3%
same,effectiveness compared to THC,"[7]; 25 μM, p<0.05, in six of the ten lines tested",significantly more effective
same,inhibition at 25 µM,[7]; [12],61.3 ± 12.1%
same,inhibition at 25 µM,HS578T,60 ± 2%
same,content of tri- and di-glyceride versus controls,C6 cells [8],over three-fold greater
same,neutral lipids versus basal levels,"C6 cells [8]; p<0.05 vs control, FIG. 3",significant increase above basal levels
"CCCCCc1cc(O)c2c(c1)OC(C)(C)[C@@H]1CCC(C)=C[C@@H]21 [Δ^9-THC, tetrahydrocannabinol]",inhibition at 25 µM,WI38 cells,66%
same,inhibition at 25 µM,U373,0%
same,inhibition at 25 µM,Calu6,28 ± 5%
same,inhibition at 25 µM,U87,20 ± 5%
same,inhibition at 25 µM,U118,39 ± 5%
same,inhibition at 25 µM,A172,42 ± 5%
same,inhibition at 25 µM,Du145,55 ± 7%
same,inhibition at 25 µM,HT1376,23 ± 5%
same,inhibition at 25 µM,PC3,72 ± 2%
same,decrease in potency on co-incubation with CB1 antagonist,C6 glioma cells [4],150%
same,cells with one or more refractile bodies,C6 cells [5],27%
same,mean number of refractile bodies per cell,C6 cells [5],0.22±0.5 per cell
same,inhibition at 25 µM,C6 glioma cells [6],50%
same,IC50,C6 glioma cells [6]; C6 glioma,10 µM
same,inhibition at 25 µM,J82,63 ± 6%
same,inhibition at 25 µM,[7]; [12],39.4 ± 22%
same,inhibition at 25 µM,HS578T,52 ± 5%
"CCCCCCC(C)(C)c1cc(O)c2c(c1)OC(C)(C)[C@@H]1CC=C(C(=O)O)C[C@@H]21 (single isomer, unassigned) [D-isomer of ajulemic acid]",potency of D-isomer compared to L-isomer of ajulemic acid,[9],marked decrease in the potency
CCCCCc1cc(O)c2c(c1)OC(C)(C)[C@@H]1CC=C(C(=O)O)C[C@@H]21 [THC-11-oic acid],Percent inhibition of human cancer cell line growth,U373,0%
same,Percent inhibition of human cancer cell line growth,Calu6,19 ± 5%
same,Percent inhibition of human cancer cell line growth,U87,5 ± 1%
same,Percent inhibition of human cancer cell line growth,U118,14 ± 3%
same,Percent inhibition of human cancer cell line growth,A172,61 ± 2%
same,Percent inhibition of human cancer cell line growth,Du145,7 ± 3%
same,Percent inhibition of human cancer cell line growth,HT1376,21 ± 12%
same,Percent inhibition of human cancer cell line growth,PC3,1 ± 1%
same,refractile bodies noted (in words),"C6 cells [5]; C6 glioma cells, 25 μM, 48 hours",no refractile bodies
same,IC50,C6 glioma cells [6],20 µM
same,Percent inhibition of human cancer cell line growth,J82,1 ± 1%
same,inhibition levels (mean±SD),"[7]; 25 μM, 48 hours, mean over the ten human lines",13.1±18.5%
same,Percent inhibition of human cancer cell line growth,HS578T; 25 μM,2 ± 1%
